In data set [1] the target is human nSMase2. The settings on record: cited from earlier work; for IC50: nSMase2 inhibition.
Data set [2] has as its system WNV. The data set can be described thus: Antiviral activity, virus yield by plaque assay (WNV). It is filed as cell-based. The settings on record: West Nile virus, MOI 1 PFU/cell, virus yield at 24 h post-infection.
Data set [3] is described as follows: in vitro. The settings on record: human.
Data set [4] is described as follows: in vitro. The settings on record: African green monkey.
Data set [5] deals with ZIKV. The data set is described as follows: Antiviral activity, virus yield by plaque assay (ZIKV). It is filed as cell-based. The settings on record: Zika virus, 24 h, read-out: EC50 ZIKV.

This is an account of results in article PMC9697135 (International Journal of Molecular Sciences, 2022).

Molecules are shown by their SMILES. Like-named read-outs stand apart in the source and are kept apart here.

In general, Ki refers to the equilibrium dissociation constant of an inhibitor or competing ligand from its target. Turning to `COc1cc(O)c(C(=O)O)c(-c2cc(O)c(O)cc2C)c1` [Altenusin], the Ki in data set [1] (non-competitive inhibitor of human nSMase2) was 20 µM.

The term IC50 denotes the midpoint of a concentration-inhibition curve. On to `COc1cc(-c2nc(-c3cccs3)c(-c3ccccc3)[nH]2)cc(OC)c1OC` [compound 8], for which, in data set [1] (SAR of DPTIP derivatives), the “nSMase2 inhibitory activity (in words)” value was “completely inactive” and the IC50 was more than 100 µM.

Turning to `CC(C)(C)Oc1cc(-c2nc(-c3cccs3)c(-c3ccccc3)[nH]2)cc(OC(C)(C)C)c1O` [compound 11], in data set [1] (SAR of DPTIP derivatives), the IC50 is 0.52 µM.

As to `Oc1c(OC2CCCC2)cc(-c2nc(-c3cccs3)c(-c3ccccc3)[nH]2)cc1OC1CCCC1` [compound 10], the IC50 in data set [1] (SAR of DPTIP derivatives) is 0.12 µM.

On to `COc1cc(-c2nc(-c3cccs3)c(-c3ccccc3)n2C)cc(OC)c1O` [compound 9], for which the IC50 in data set [1] (SAR of DPTIP derivatives) is 40 µM.

A word on the EC50: it is the concentration that produces a half-maximal response. For the compound `COc1cc(-c2nc(-c3cccs3)c(-c3ccccc3)[nH]2)cc(OC)c1O` [DPTIP], the EC50 in data set [2] (HeLa cells) is 2.81 µM; in data set [2] (Vero cells) it was 0.26 µM; in data set [5] (HeLa), 1.84 µM; in data set [5] (Vero) it was 1.56 µM. Besides, the CC50 in data set [3] amounted to 15.1 µM; in data set [4], 54.8 µM.
